Laboratory results published in patent US20170275298A1, “INHIBITORS OF THE RENAL OUTER MEDULLARY POTASSIUM CHANNEL” (Merck Sharp & Dohme Corp., priority 2014, published 2017).

Target: T1, hROMK (hKir1.1) (Homo sapiens, UniProt P48048)
T1 construct: expressed in transfected cells
T1 sequence (P48048 1-391): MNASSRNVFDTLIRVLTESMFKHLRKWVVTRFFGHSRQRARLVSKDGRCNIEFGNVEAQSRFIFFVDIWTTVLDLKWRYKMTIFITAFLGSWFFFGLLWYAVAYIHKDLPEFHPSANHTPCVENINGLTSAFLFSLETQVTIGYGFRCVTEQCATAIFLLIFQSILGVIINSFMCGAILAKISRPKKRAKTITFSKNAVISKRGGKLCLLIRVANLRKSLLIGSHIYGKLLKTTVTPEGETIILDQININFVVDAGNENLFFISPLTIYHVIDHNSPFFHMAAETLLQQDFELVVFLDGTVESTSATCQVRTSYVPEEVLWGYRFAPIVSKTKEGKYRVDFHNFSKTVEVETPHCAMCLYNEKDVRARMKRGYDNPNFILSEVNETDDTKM
Test: Thallium Flux Assay (ROMK channel functional thallium flux assay)
Assay type: cell-based
Conditions: HEK293 cells stably expressing hROMK (hKir1.1); FluxOR thallium flux, FLIPR-Tetra, 30 min compound incubation; read-out: ROMK TI IC50
Protocol: The following Thallium Flux Assay was performed on each of the final product compounds in the Examples.
HEK293 cells stably expressing hROMK (hKir1.1) were grown at 37° C. in a 10% CO2 humidified incubator in complete growth media: Dulbecco's Modified Eagle Medium supplemented with non-essential amino acids, Penicillin/Streptomycin/Glutamine, G418 and FBS. At >80% confluency, the media was aspirated from the flask and rinsed with 10 mL calcium/magnesium-free PBS. […] To dislodge the cell, the side of the flask was gently banged with one's hand. The cells completely titrated and then the cells were transferred to 25 mL complete media, centrifuged at 1,500 rpm for 6 min followed by resuspension in complete growth media and determine cell concentration. […] Under ideal growth conditions and appropriate tissue culture practices, this cell line is stable for 40-45 passages.
• FluxOR™ Reagent (Component A) • FluxOR™ Assay Buffer (Component B)—10× Concentrate • PowerLoad™ Concentrate (Component C)—100× Concentrate • Probenecid (Component D)—Lyophilized sample is kept at −20° C. Water soluble, 100× after solubilization in 1 mL water. […] Store at 4° C. • Thallium sulfate (Tl2SO4) Concentrate (Component G)—50 mM in water. Store at 4° C. • DMSO (dimethyl sulfoxide, Component H)—1 mL (100%)
Can be stored at room temperature • Stimulant Buffer (prepared at 5× final concentration in 1×FluxOR™ Chloride-Free Buffer): 7.5 mM thallium sulfate and 0.75 mM potassium sulfate (to give a final assay concentration of 3 mM Thallium/0.3 mM potassium). Store at 4° C. when not in use. If kept sterile, this solution is good for months.
The ROMK channel functional thallium flux assay was performed in 384 wells, using the FLIPR-Tetra instrument. HEK-hKir1.1 cells were seeded in Poly-D-Lysine microplates and kept in a 37° C.-10% CO2 incubator overnight. On the day of the experiment, the growth media was replaced with the FluxOR™ reagent loading buffer and incubated, protected from light, at ambient temperature (23-25° C.) for 90 min. The loading buffer was replaced with assay buffer±test compound followed by 30 min incubation at ambient temperature, where the thallium/potassium stimulant was added to the microplate.
1. Seed HEK-hKir1.1 cells (50 μl at 20,000 cells/well) in 384-well PDL coated Microplates 2. Allow cells to adhere overnight in humidified 37° C./10% CO2 incubator 3. Completely remove cell growth media from microplate and replace with 25 μl loading buffer 4. Incubate Microplate at room temperature, protected form light, for 90 min 5. Remove loading buffer and replace with 25 μl 1× Assay Buffer±test compound. 6. Incubate microplate at room temperature, protected from light, for 30 min 7. […] Excitation=400 nm, Emission=460 & 580 nm. Collect data for ˜10 min.
The fluorescence intensity of wells containing 3 μM of a standard control ROMK inhibitor of the present invention was used to define the ROMK-sensitive component of thallium flux. Fluorescence in the presence of test compounds was normalized to control values to provide % fluorescence change.

| IC50 [nM] | SMILES |
| --- | --- |
| 407 | COc1cc(N2CCOC3(CCN(C[C@H](O)c4ccc5c(c4C)COC5=O)CC3)C2=O)ccn1 [Example 23, (R)-9-(2-hydroxy-2-(4-methyl-1-oxo-1,3-dihydroisobenzofuran-5-yl)ethyl)-4-(2-methoxypyridin-4-yl)-1-oxa-4,9-diazaspiro[5.5]undecan-5-one] |
| 30.2 | COc1nccc(N2CCOC3(CCN(C[C@H](O)c4ccc5c(c4C)COC5=O)CC3)C2=O)n1 [Example 24, (R)-9-(2-hydroxy-2-(4-methyl-1-oxo-1,3-dihydroisobenzofuran-5-yl)ethyl)-4-(2-methoxypyrimidin-4-yl)-1-oxa-4,9-diazaspiro[5.5]undecan-5-one] |
| 437 | Cc1c([C@@H](O)CN2CCC3(CC2)CCN(c2cnccn2)C3=O)ccc2c1COC2=O [Example 25, (R)-8-(2-hydroxy-2-(4-methyl-1-oxo-1,3-dihydroisobenzofuran-5-yl)ethyl)-2-(pyrazin-2-yl)-2,8-diazaspiro[4.5]decan-1-one] |
| 238 | Cc1c([C@@H](O)CN2CCC3(CC2)OCCN(c2ccncc2)C3=O)ccc2c1COC2=O [Example 26, (R)-9-(2-hydroxy-2-(4-methyl-1-oxo-1,3-dihydroisobenzofuran-5-yl)ethyl)-4-(pyridin-4-yl)-1-oxa-4,9-diazaspiro[5.5]undecan-5-one] |
| 25 | COc1nsc(N2CCOC3(CCN(C[C@H](O)c4ccc5c(c4C)COC5=O)CC3)C2=O)n1 [Example 27, (R)-9-(2-hydroxy-2-(4-methyl-1-oxo-1,3-dihydroisobenzofuran-5-yl)ethyl)-4-(3-methoxy-1,2,4-thiadiazol-5-yl)-1-oxa-4,9-diazaspiro[5.5]undecan-5-one] |
| 123 | Cc1nsc(N2CCOC3(CCN(C[C@H](O)c4ccc5c(c4C)COC5=O)CC3)C2=O)n1 [Example 28, (R)-9-(2-hydroxy-2-(4-methyl-1-oxo-1,3-dihydroisobenzofuran-5-yl)ethyl)-4-(3-methyl-1,2,4-thiadiazol-5-yl)-1-oxa-4,9-diazaspiro[5.5]undecan-5-one] |
| 145 | Cc1c([C@@H](O)CN2CCC3(CCCN(c4ccc(=O)n(C)n4)C3=O)CC2)ccc2c1COC2=O [Example 29, (R)-9-(2-hydroxy-2-(4-methyl-1-oxo-1,3-dihydroisobenzofuran-5-yl)ethyl)-2-(1-methyl-6-oxo-1,6-dihydropyridazin-3-yl)-2,9-diazaspiro[5.5]undecan-1-one] |
| 95.1 | Cc1c([C@@H](O)CN2CCC3(CC2)CC(=O)N(c2ccc(=O)n(C)n2)C3)ccc2c1COC2=O [Example 30, (R)-8-(2-hydroxy-2-(4-methyl-1-oxo-1,3-dihydroisobenzofuran-5-yl)ethyl)-2-(1-methyl-6-oxo-1,6-dihydropyridazin-3-yl)-2,8-diazaspiro[4.5]decan-3-one] |
| 153 | COc1nccc(N2CC3(CCN(C[C@H](O)c4ccc5c(c4C)COC5=O)CC3)CC2=O)n1 [Example 31, (R)-8-(2-hydroxy-2-(4-methyl-1-oxo-1,3-dihydroisobenzofuran-5-yl)ethyl)-2-(2-methoxypyrimidin-4-yl)-2,8-diazaspiro[4.5]decan-3-one] |
| 465 | Cc1c([C@@H](O)CN2CCC3(CC2)CCN(c2ccc(OC(F)(F)F)cc2)C3=O)ccc2c1COC2=O [Example 32, (R)-8-(2-hydroxy-2-(4-methyl-1-oxo-1,3-dihydroisobenzofuran-5-yl)ethyl)-2-(4-(trifluoromethoxy)phenyl)-2,8-diazaspiro[4.5]decan-1-one] |
| 63.1 | Cc1c([C@@H](O)CN2CCC3(CC2)CCN(c2ccc(C(F)F)nc2)C3=O)ccc2c1COC2=O [Example 33, (R)-2-(6-(difluoromethyl)pyridin-3-yl)-8-(2-hydroxy-2-(4-methyl-1-oxo-1,3-dihydroisobenzofuran-5-yl)ethyl)-2,8-diazaspiro[4.5]decan-1-one] |
| 505 | Cc1c([C@@H](O)CN2CCC3(CC2)CCN(c2cc(-c4ccccc4)no2)C3=O)ccc2c1COC2=O [Example 34, (R)-8-(2-hydroxy-2-(4-methyl-1-oxo-1,3-dihydroisobenzofuran-5-yl)ethyl)-2-(3-phenylisoxazol-5-yl)-2,8-diazaspiro[4.5]decan-1-one] |
| 379 | Cc1c([C@@H](O)CN2CCC3(CC2)CCN(c2cccnc2)C3=O)ccc2c1COC2=O [Example 35, (R)-8-(2-hydroxy-2-(4-methyl-1-oxo-1,3-dihydroisobenzofuran-5-yl)ethyl)-2-(pyridin-3-yl)-2,8-diazaspiro[4.5]decan-1-one] |
| 393 | COc1ccc(N2CCC3(CCN(C[C@H](O)c4ccc5c(c4C)COC5=O)CC3)C2=O)nn1 [Example 36, (R)-8-(2-hydroxy-2-(4-methyl-1-oxo-1,3-dihydroisobenzofuran-5-yl)ethyl)-2-(6-methoxypyridazin-3-yl)-2,8-diazaspiro[4.5]decan-1-one] |
| 676 | Cc1c([C@@H](O)CN2CCC3(CC2)CCN(c2cncnc2)C3=O)ccc2c1COC2=O [Example 37, (R)-8-(2-hydroxy-2-(4-methyl-1-oxo-1,3-dihydroisobenzofuran-5-yl)ethyl)-2-(pyrimidin-5-yl)-2,8-diazaspiro[4.5]decan-1-one] |
| 82.5 | Cc1c([C@@H](O)CN2CCC3(CC2)CCN(c2cncc(F)c2)C3=O)ccc2c1COC2=O [Example 38, (R)-2-(5-fluoropyridin-3-yl)-8-(2-hydroxy-2-(4-methyl-1-oxo-1,3-dihydroisobenzofuran-5-yl)ethyl)-2,8-diazaspiro[4.5]decan-1-one] |
| 38.8 | [2H]C([2H])([2H])Oc1nccc(N2CCC3(CCN(C[C@H](O)c4ccc5c(c4C)COC5=O)CC3)C2=O)n1 [Example 39, (R)-8-(2-hydroxy-2-(4-methyl-1-oxo-1,3-dihydroisobenzofuran-5-yl)ethyl)-2-(2-methoxypyrimidin-4-yl)-2,8-diazaspiro[4.5]decan-1-one (methoxy-d3)] |
| 142 | COc1ncc(N2CCC3(CCN(C[C@H](O)c4ccc5c(c4C)COC5=O)CC3)C2=O)cn1 [Example 40, (R)-8-(2-hydroxy-2-(4-methyl-1-oxo-1,3-dihydroisobenzofuran-5-yl)ethyl)-2-(2-methoxypyrimidin-5-yl)-2,8-diazaspiro[4.5]decan-1-one] |
| 193 | Cc1nccc(N2CCC3(CCN(C[C@H](O)c4ccc5c(c4C)COC5=O)CC3)C2=O)n1 [Example 41, (R)-8-(2-hydroxy-2-(4-methyl-1-oxo-1,3-dihydroisobenzofuran-5-yl)ethyl)-2-(2-methylpyrimidin-4-yl)-2,8-diazaspiro[4.5]decan-1-one] |
| 842 | COc1cc(N2CCC3(CCN(C[C@H](O)c4ccc5c(c4C)COC5=O)CC3)C2=O)nc(OC)n1 [Example 42, (R)-2-(2,6-dimethoxypyrimidin-4-yl)-8-(2-hydroxy-2-(4-methyl-1-oxo-1,3-dihydroisobenzofuran-5-yl)ethyl)-2,8-diazaspiro[4.5]decan-1-one] |
| 521 | Cc1c([C@@H](O)CN2CCC3(CC2)CCN(c2ccnc(N(C)C)n2)C3=O)ccc2c1COC2=O [Example 43, (R)-2-(2-(dimethylamino)pyrimidin-4-yl)-8-(2-hydroxy-2-(4-methyl-1-oxo-1,3-dihydroisobenzofuran-5-yl)ethyl)-2,8-diazaspiro[4.5]decan-1-one] |
| 66.6 | CCOc1nccc(N2CCC3(CCN(C[C@H](O)c4ccc5c(c4C)COC5=O)CC3)C2=O)n1 [Example 44, (R)-2-(2-ethoxypyrimidin-4-yl)-8-(2-hydroxy-2-(4-methyl-1-oxo-1,3-dihydroisobenzofuran-5-yl)ethyl)-2,8-diazaspiro[4.5]decan-1-one] |
